From article PMC6017107 (Molecules : A Journal of Synthetic Chemistry and Natural …, 2018)
“Also recorded” adds a separate entry of the source. Like-named read-outs stand apart in the source and are kept apart here.

Assays:
[1] = Plasma pharmacokinetics of phytochemicals after intraperitoneal injection
Method: (§1) Male ICR mice (age: 5–6 weeks old; body weight: 30 ± 2 g) were purchased from Samtako Co. (Osan, Gyeonggi-do, Korea), housed in plastic cages and given free access to a standard animal diet (Daejong, Seoul, Korea) and water. The environment was maintained under the following conditions: temperature, 23 ± 1 °C; 12-h light-dark cycle; and relative humidity, 50% ± 10%. The animals were acclimatized for a minimum period of 1 week and fasted overnight prior to experimentation.
(§2) The mice were randomly divided into four groups. Each group was pretreated with either control vehicle (a mixture of DMSO:PEG 400:distilled water; 5:45:50, v/v), piperine (10 mg/kg), capsaicin (5 mg/kg), or [6]-gingerol (5 mg/kg). The treatment solutions of piperine, capsaicin and [6]-gingerol were prepared by the dissolution of each compound in the DMSO:PEG 400:distilled water mixture at concentrations of 2, 1 and 1 mg/mL, respectively. The treatment solutions were administered intraperitoneally twice with τ = 60 min for control vehicle and piperine and τ = 30 min for capsaicin and [6]-gingerol. […] The physiological conditions of the animals were carefully monitored during the study.
(§3) The volume of injected dosing vehicle was 5 mL/kg. […] Plasma was harvested by centrifugation at 16,000× g for 10 min and immediately stored at −20 °C until analysis. […] All excised tissues were accurately weighed and homogenized (Tissue Tearor, Biospec Products Inc., Bartlesville, OK, USA) with appropriate volumes of isotonic saline. The obtained tissue homogenates were stored at −20 °C until analysis.
(§4) Sample analyses were conducted on an Agilent 6430 triple quadrupole mass spectrometer coupled with an Agilent 1200 HPLC (Agilent, Santa Clara, CA, USA). […] Chromatographic separation was performed using a binary gradient mobile phase composed of acetonitrile (A) and 0.05% formic acid (B) and programmed as follows: initial conditions, 20% A (0.3 mL/min) for 0.1 min and 80% A for 3 min; increased to 90% A in 0.1 min and maintained for 1 min; returned to the initial composition; followed by a 3.2-min equilibration step (1.5 min for 0.3 mL/min and then 1.7 min for 0.5 mL/min). The ESI source was operated in positive mode with curtain and nebulizer gas set at 10 and 20 psi, respectively. The capillary voltage and gas temperature were 4000 V and 300 °C, respectively.
(§5) The IS working solution (20 μL of 100 ng/mL IS solution for plasma and 50 μL of 100 ng/mL IS solution for tissue samples) and acetonitrile (50 μL for plasma and 80 μL for tissue samples) were added to 20 μL of plasma and 50 μL of tissue samples and mixed on a vortex mixer for 1 min. The mixture was then centrifuged at 16,000× g (Biofuge Fresco, Kendro, Osterode, Germany) for 10 min. For tissue samples, 100 μL of the supernatant was re-precipitated with an equal volume of acetonitrile and centrifuged at 16,000× g for 10 min. Finally, 50 μL distilled water was added to 50 μL of each supernatant, followed by mixing and injection of 10 μL of the sample mixture onto the LC-MS/MS. Data acquisition was performed with MassHunter Quantitative Analysis (Agilent, Santa Clara, CA, USA).
(§6) The pharmacokinetic parameters were determined by non-compartmental analysis using Phoenix® WinNonlin® 6.4 (Certara, L.P., Princeton, NJ, USA). As the procedure entailed destructive sampling, the non-compartmental analysis was performed by using the average plasma concentration vs. time data. These parameters included terminal half-life (t1/2), area under the plasma concentration-time curve from time zero to infinity (AUCinf), apparent volume of distribution during the terminal phase (Vz), the volume of distribution at steady state (Vss) and systemic clearance (CL).

in vivo = conditions: for Increase of the Kp of doxorubicin in the kidney by pretreatment, comparing with control: 2 h after administration; for Increase of the Kp of doxorubicin in the liver by pretreatment: mice (matches 2 h values of Table 4)
Method: as §1, §2, §3, §4, §5, §6

P-gp [2] = conditions: cited from earlier work; for IC50: Caco-2 cells
P-gp [3] = conditions: ref [7], cited from earlier work; for Effects on the P-gp mediated transport in vitro: KB-C2; for Increase of accumulation of rhodamine 123: KB-C2 cells
KB-C2 cells = conditions: substrate Vinblastine, ref [7]; cited from earlier work
Caco-2 cells = conditions: ref [6]; cited from earlier work
mice = conditions: cited from earlier work
[4] = Plasma pharmacokinetics of doxorubicin i.v. in mice pretreated with phytochemical P-gp modulators; conditions: male, ICR, mouse, in vivo, iv, 1 mg/kg, i.v. 1 mg/kg; for C0: C0 of doxorubicin; for clearance: CL of doxorubicin; for half-life: t1/2 of doxorubicin
Method: as §1, §2, §3, §4, §5, §6

[5] = cited from earlier work
[6] = Tissue distribution of phytochemicals after intraperitoneal administration; conditions: mouse, in vivo, ip
Method: as §1
The mice were randomly divided into four groups. Each group was pretreated with either control vehicle (a mixture of DMSO:PEG 400:distilled water; 5:45:50, v/v), piperine (10 mg/kg), capsaicin (5 mg/kg), or [6]-gingerol (5 mg/kg). […] The physiological conditions of the animals were carefully monitored during the study. […]
The IS working solution (20 μL of 100 ng/mL IS solution for plasma and 50 μL of 100 ng/mL IS solution for tissue samples) and acetonitrile (50 μL for plasma and 80 μL for tissue samples) were added to 20 μL of plasma and 50 μL of tissue samples and mixed on a vortex mixer for 1 min. […] Data acquisition was performed with MassHunter Quantitative Analysis (Agilent, Santa Clara, CA, USA).
The pharmacokinetic parameters were determined by non-compartmental analysis using Phoenix® WinNonlin® 6.4 (Certara, L.P., Princeton, NJ, USA). […]

P-gp, MRP1 and BCRP = conditions: ref [30], cited from earlier work
[7] = tested on: MCF-7/DOX, A-549/DDP cells; conditions: ref [30], cited from earlier work
ABC transporter genes = conditions: MCF-7/DOX, A-549/DDP; ref [30]; cited from earlier work
[8] = male, ICR, mouse, in vivo, ip, 5 mg/kg
[9] = male, ICR, mouse, in vivo, ip, 10 mg/kg
[10] = A-549/DDP, substrate Doxorubicin

For `COc1cc(CNC(=O)CCCC/C=C/C(C)C)ccc1O` [Capsaicin], the Detection in plasma ([1]; i.p. 5 mg/kg, mice, plasma) was “not detected 2–4 h after administration”, the AUC(0-inf) [1, 8] was 66.8 ng·h/mL and the CL/F [1, 8] was 1250 mL/min/kg. For the same molecule, the Cmax [1, 8] was 119 ng/mL, the Tmax [1, 8] was 0.17 h and the Vd/F [1, 8] was 35.7 L/kg. The half-life [1, 8] was 0.33 h, the “Increase of the Kp of doxorubicin in the brain by pretreatment” value (in vivo; brain, 2 h, mice) was 3.33 fold and the “Increase of the Kp of doxorubicin in the kidney by pretreatment, comparing with control” value (in vivo; mice) was 1.95 fold. The “Increase of the Kp of doxorubicin in the liver by pretreatment” value (in vivo) was 6.21 fold, the “Effects on the P-gp mediated transport in vitro” value (P-gp [2]; Caco-2, substrate [3H] Digoxin, ref [6]) was “inhibited digoxin efflux mediated by P-gp; also recorded: Inhibited P-gp mediated efflux transport” and the “Effects on the P-gp mediated transport in vitro” value (P-gp [3]; substrate Daunorubicin) was “Increased cellular accumulation”. The “Effects on the P-gp mediated transport in vitro” value (P-gp [3]; substrate Rhodamine 123) was “Inhibited efflux transport”, the “Increase of accumulation of rhodamine 123” value (P-gp [3]; 50 μmol/L capsaicin) was 4 fold and the “Effects on the P-gp mediated transport in vitro” value (KB-C2 cells) was “Increased vinblastine cytotoxicity by inhibition of efflux transporter”. The Cytotoxicity (Caco-2 cells) was “no resulting cytotoxicity” and the LD50 (mice; i.p., mice, ref [57],[58]) was 7.6 mg/kg.

Work on `COc1cccc2c1C(=O)c1c(O)c3c(c(O)c1C2=O)C[C@@](O)(C(=O)CO)C[C@@H]3O[C@H]1C[C@H](N)[C@H](O)[C@H](C)O1` [Doxorubicin] yielded a C0 ([4]; pretreatment Capsaicin) of 4430 ng/mL, a C0 ([4]; pretreatment Control) of 3980 ng/mL and a C0 ([4]; pretreatment Piperine) of 3400 ng/mL. The C0 ([4]; pretreatment [6]-Gingerol) was 4040 ng/mL, the clearance ([4]; pretreatment Capsaicin) was 25.2 mL/min/kg and the clearance ([4]; pretreatment Control) was 31 mL/min/kg. The clearance ([4]; pretreatment Piperine) was 25.6 mL/min/kg, the clearance ([4]; pretreatment [6]-Gingerol) was 28.8 mL/min/kg and the half-life ([4]; pretreatment Capsaicin) was 13.3 h. For the same molecule, the half-life ([4]; pretreatment Control) was 17.4 h, the half-life ([4]; pretreatment Piperine) was 15.7 h and the half-life ([4]; pretreatment [6]-Gingerol) was 15.5 h. For the same molecule, the Kp (in vivo; male, ICR, mouse, in vivo, iv, 1 mg/kg, Doxorubicin Kp values) was > 35.4, the “Injected doxorubicin excreted in bile” value ([5]; bile duct-cannulated rats, ref [45]) was 33–35% and the “Injected doxorubicin eliminated via urine” value ([5]; bladder-cannulated rats, ref [45]) was 4–8%. For the same molecule, the “Initial dose appearing in the bile as unchanged doxorubicin” value ([5]; rats, within 3 h, ref [43]) was “approximately 30%”.

For `O=C(/C=C/C=C/c1ccc2c(c1)OCO2)N1CCCCC1` [Piperine], the AUC(0-inf) [1, 9] was 9960 ng·h/mL, the CL/F [1, 9] was 16.7 mL/min/kg and the Cmax [1, 9] was 5050 ng/mL. It also gave a Tmax [1, 9] of 0.75 h, a Vd/F [1, 9] of 9.12 L/kg and a half-life [1, 9] of 6.3 h. For the same molecule, the Kp at 2 h ([6]; male, ICR, 10 mg/kg) was 1.69 ± 0.28, the “Increase of the Kp of doxorubicin in the kidney by pretreatment, comparing with control” value (in vivo; mice) was 2.23 fold and the “Increase of the Kp of doxorubicin in the liver by pretreatment” value (in vivo) was 5.44 fold. For the same molecule, the “Effects on the P-gp mediated transport in vitro” value (P-gp [2]; Caco-2, L-MDR1, substrate [3H] Digoxin, ref [5]) was “Inhibited P-gp mediated efflux transport”, the “Effects on the P-gp mediated transport in vitro” value (P-gp [2]; Caco-2, substrates Digoxin, Cyclosporin A, ref [4]) was “Inhibited P-gp mediated efflux transport” and the IC50 (P-gp [2]; cyclosporine A, ref [4], read-out: IC50, inhibition of transport of P-gp substrate cyclosporine A) was 74.1 µM. The IC50 (P-gp [2]; digoxin, ref [4], read-out: IC50, inhibition of transport of P-gp substrate digoxin) was 15.5 µM, the “Effects on the P-gp mediated transport in vitro” value (P-gp, MRP1 and BCRP; [10]) was “Inhibited efflux activity of P-gp, MRP1 and BCRP” and the “Effects on the P-gp mediated transport in vitro” value (P-gp, MRP1 and BCRP; MCF-7/DOX, substrates Rhodamine 123, Mitoxantrone) was “Inhibited efflux activity of P-gp, MRP1 and BCRP”. For the same molecule, the “Effects on the P-gp mediated transport in vitro” value [7, 10] was “Increased cytotoxicity by reversing transporter mediated doxorubicin and mitoxantrone resistance”, the “Effects on the P-gp mediated transport in vitro” value ([7]; substrate Mitoxantrone) was “Increased cytotoxicity by reversing transporter mediated doxorubicin and mitoxantrone resistance” and the “Effects on the P-gp mediated transport in vitro” value (ABC transporter genes) was “Inhibited transcription of the corresponding ABC transporter genes”. The LD50 (mice; mouse, in vivo, ip) was 60 mg/kg.

`CCCCC[C@H](O)CC(=O)CCc1ccc(O)c(OC)c1` [[6]-Gingerol] gave an AUC(0-inf) [1, 8] of 66.3 ng·h/mL, a CL/F [1, 8] of 1260 mL/min/kg and a Cmax [1, 8] of 153 ng/mL. For the same molecule, the Detection in plasma [1, 8] was “not detected 2–4 h after administration”, the Tmax [1, 8] was 0.17 h and the Vd/F [1, 8] was 148 L/kg. For the same molecule, the half-life [1, 8] was 1.36 h, the “Detection in brain, heart and testis” value [6] was “not detected” and the “Effects on the P-gp mediated transport in vitro” value (P-gp [2]; Caco-2, L-MDR1, substrate [3H] Digoxin, ref [8]) was “Inhibited P-gp mediated efflux transport”. The “Effects on the P-gp mediated transport in vitro” value (P-gp [2]; Caco-2, L-MDR1, substrate [3H] Digoxin, ref [8], listed as [6]-gingerol) was “inhibited P-gp-mediated digoxin transport”, the “Effects on the P-gp mediated transport in vitro” value (P-gp [3]; substrate Daunorubicin) was “Increased cellular accumulation” and the “Effects on the P-gp mediated transport in vitro” value (P-gp [3]; substrate Rhodamine 123) was “Inhibited efflux transport”. For the same molecule, the “Increase of accumulation of rhodamine 123” value (P-gp [3]; in the presence of [6]-gingerol) was 2.24 fold, the “Effects on the P-gp mediated transport in vitro” value (KB-C2 cells) was “Increased vinblastine cytotoxicity by inhibition of efflux transporter” and the LD50 (mice; mouse, in vivo, ip) was 58.1 mg/kg.
